{"source": "patent US20200017496A1", "about": "(priority 2017, published 2020)", "system": "Escherichia coli (ECO) isolates", "test": "MIC of compounds alone and combined with antibacterials, broth microdilution (CLSI)", "assay_type": "cell-based", "conditions": "for MIC: Escherichia coli", "outline": "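First, log-phase suspensions are brought to a final 5·10^5 CFU/mL in cation-adjusted Mueller-Hinton broth. Then plates with compound, antibacterial, or both incubate 16-20 h at 35° C under ambient air. Finally, visual inspection gives the lowest growth-preventing concentration for each agent.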", "note": "Like-named read-outs stand apart in the source and are kept apart here.", "data": [{"molecule": "C=CC1=C(C(=O)O)N2C(=O)[C@@H](NC(=O)/C(=N\\OCC(=O)O)c3csc(N)n3)[C@H]2SC1", "note": "[FIX, Cefixime]", "values": [{"measurement": "MIC ATB in combination", "setting": "ECO UFR20, AF1 @ 4 μg/mL", "value": 1, "unit": "µg/mL"}, {"measurement": "MIC ATB in combination", "setting": "ECO UFR20, AF1 @ 8 μg/mL", "value": 1, "unit": "µg/mL"}, {"measurement": "MIC ATB in combination", "setting": "ECO UFR61O, AF1 @ 4 μg/mL", "value": 0.25, "unit": "µg/mL"}, {"measurement": "MIC ATB in combination", "setting": "ECO UFR62, AF1 @ 4 μg/mL", "value": "<=0.25 μg/mL"}, {"measurement": "MIC ATB in combination", "setting": "ECO UFR62, AF1 @ 8 μg/mL", "value": "<=0.25 μg/mL"}, {"measurement": "MIC ATB in combination", "setting": "ECO UFR74, AF1 @ 4 μg/mL", "value": 32, "unit": "µg/mL"}, {"measurement": "MIC ATB in combination", "setting": "ECO UFR74, AF1 @ 8 μg/mL", "value": 1, "unit": "µg/mL"}, {"measurement": "MIC ATB in combination", "setting": "ECO UFR86, AF1 @ 4 μg/mL", "value": 0.5, "unit": "µg/mL"}, {"measurement": "MIC ATB in combination", "setting": "ECO UFR86, AF1 @ 8 μg/mL", "value": "<=0.25 μg/mL"}, {"measurement": "MIC ATB in combination", "setting": "ECO UFR174, AF1 @ 4 μg/mL", "value": "<=0.25 μg/mL"}, {"measurement": "MIC ATB in combination", "setting": "ECO UFR174, AF1 @ 8 μg/mL", "value": "<0.25", "unit": "µg/mL"}, {"measurement": "MIC ATB in combination", "setting": "ECO UFR175, AF1 @ 4 μg/mL", "value": "<=0.25 μg/mL"}, {"measurement": "MIC ATB in combination", "setting": "ECO UFR175, AF1 @ 8 μg/mL", "value": "<=0.25 μg/mL"}, {"measurement": "MIC ATB in combination", "setting": "ECO UFR176, AF1 @ 4 μg/mL", "value": "<=0.25 μg/mL"}, {"measurement": "MIC ATB in combination", "setting": "ECO UFR176, AF1 @ 8 μg/mL", "value": "<=0.25 μg/mL"}, {"measurement": "MIC ATB in combination", "setting": "ECO UFR184, AF1 @ 4 μg/mL", "value": 8, "unit": "µg/mL"}, {"measurement": "MIC ATB in combination", "setting": "ECO UFR184, AF1 @ 8 μg/mL", "value": "<=0.25 μg/mL"}, {"measurement": "MIC ATB in combination", "setting": "ECO UFR185, AF1 @ 4 μg/mL", "value": 4, "unit": "µg/mL"}, {"measurement": "MIC ATB in combination", "setting": "ECO UFR185, AF1 @ 8 μg/mL", "value": "<0.25", "unit": "µg/mL"}, {"measurement": "MIC ATB in combination", "setting": "ECO UFR186, AF1 @ 4 μg/mL", "value": "<=0.25 μg/mL"}, {"measurement": "MIC ATB in combination", "setting": "ECO UFR186, AF1 @ 8 μg/mL", "value": "<=0.25 μg/mL"}, {"measurement": "MIC ATB in combination", "setting": "ECO UFR187, AF1 @ 4 μg/mL", "value": "<=0.25 μg/mL"}, {"measurement": "MIC ATB in combination", "setting": "ECO UFR187, AF1 @ 8 μg/mL", "value": "<=0.25 μg/mL"}, {"measurement": "MIC ATB in combination", "setting": "ECO UFR189, AF1 @ 4 μg/mL", "value": "<=0.25 μg/mL"}, {"measurement": "MIC ATB in combination", "setting": "ECO UFR189, AF1 @ 8 μg/mL", "value": "<=0.25 μg/mL"}, {"measurement": "MIC ATB in combination", "setting": "ECO UFR190, AF1 @ 4 μg/mL", "value": "<=0.25 μg/mL"}, {"measurement": "MIC ATB in combination", "setting": "ECO UFR190, AF1 @ 8 μg/mL", "value": "<=0.25 μg/mL"}, {"measurement": "MIC ATB in combination", "setting": "ECO UFR191, AF1 @ 4 μg/mL", "value": "<=0.25 μg/mL"}, {"measurement": "MIC ATB in combination", "setting": "ECO UFR191, AF1 @ 8 μg/mL", "value": "<=0.25 μg/mL"}, {"measurement": "MIC ATB in combination", "setting": "ECO UFR207, AF1 @ 4 μg/mL", "value": "<=0.25 μg/mL"}, {"measurement": "MIC ATB in combination", "setting": "ECO UFR207, AF1 @ 8 μg/mL", "value": "<=0.25 μg/mL"}, {"measurement": "MIC ATB in combination", "setting": "ECO UFR208, AF1 @ 4 μg/mL", "value": 64, "unit": "µg/mL"}, {"measurement": "MIC ATB in combination", "setting": "ECO UFR208, AF1 @ 8 μg/mL", "value": 32, "unit": "µg/mL"}, {"measurement": "MIC ATB in combination", "setting": "ECO UFR209, AF1 @ 8 μg/mL", "value": 0.063, "unit": "µg/mL"}, {"measurement": "MIC ATB in combination", "setting": "ECO UFR210, AF1 @ 4 μg/mL", "value": "<=0.25 μg/mL"}, {"measurement": "MIC ATB in combination", "setting": "ECO UFR210, AF1 @ 8 μg/mL", "value": "<=0.25 μg/mL"}, {"measurement": "MIC ATB in combination", "setting": "ECO UFR211, AF1 @ 4 μg/mL", "value": "<=0.25 μg/mL"}, {"measurement": "MIC ATB in combination", "setting": "ECO UFR211, AF1 @ 8 μg/mL", "value": "<=0.25 μg/mL"}, {"measurement": "MIC ATB in combination", "setting": "ECO UFR212, AF1 @ 4 μg/mL", "value": 64, "unit": "µg/mL"}, {"measurement": "MIC ATB in combination", "setting": "ECO UFR212, AF1 @ 8 μg/mL", "value": "<=0.25 μg/mL"}, {"measurement": "MIC ATB in combination", "setting": "ECO UFR218, AF1 @ 4 μg/mL", "value": "<=0.25 μg/mL"}, {"measurement": "MIC ATB in combination", "setting": "ECO UFR218, AF1 @ 8 μg/mL", "value": "<=0.25 μg/mL"}, {"measurement": "MIC", "setting": "ECO 190317, alone, read-out: MIC", "value": "> 128", "unit": "µg/mL"}, {"measurement": "MIC", "setting": "ECO 190457, alone, read-out: MIC", "value": 128, "unit": "µg/mL"}, {"measurement": "MIC", "setting": "ECO UFR16, alone, read-out: MIC", "value": "> 128", "unit": "µg/mL"}, {"measurement": "MIC", "setting": "ECO UFR20, alone", "value": 512, "unit": "µg/mL"}, {"measurement": "MIC", "setting": "ECO UFR209, alone, read-out: MIC", "value": 1020, "unit": "µg/mL"}, {"measurement": "MIC", "setting": "strain ECO 4133 (TEM-30, OXA-1), ATB alone", "value": 0.5, "unit": "µg/mL"}, {"measurement": "MIC", "setting": "strain ECO 4133 (TEM-30, OXA-1), CLA @ 4 μg/ml+ ATB", "value": 0.5, "unit": "µg/mL"}, {"measurement": "MIC", "setting": "strain ECO 5302 (TEM-1, OXA-1), ATB alone", "value": 0.5, "unit": "µg/mL"}, {"measurement": "MIC", "setting": "strain ECO 5302 (TEM-1, OXA-1), CLA @ 4 μg/ml+ ATB", "value": 0.5, "unit": "µg/mL"}, {"measurement": "MIC", "setting": "strain ECO 131119 (TEM-1, OXA-48), ATB alone", "value": "≤ 0.25", "unit": "µg/mL"}, {"measurement": "MIC", "setting": "strain ECO 131119 (TEM-1, OXA-48), CLA @ 4 μg/ml+ ATB", "value": "≤ 0.25", "unit": "µg/mL"}, {"measurement": "MIC", "setting": "strain ECO 180070 (TEM-1, CTX-M-15), ATB alone, read-out: MIC", "value": 128, "unit": "µg/mL"}, {"measurement": "MIC", "setting": "strain ECO 190314 (CTX-M-1), ATB alone", "value": 16, "unit": "µg/mL"}, {"measurement": "MIC", "setting": "strain ECO 190317 (TEM-1, SHV-12, CTX-M-15, OXA-1), ATB alone, read-out: MIC", "value": "> 128", "unit": "µg/mL"}, {"measurement": "MIC", "setting": "strain ECO 190317 (TEM-1, SHV-12, CTX-M-15, OXA-1), CLA @ 4 μg/ml+ ATB", "value": 0.5, "unit": "µg/mL"}, {"measurement": "MIC", "setting": "strain ECO 190457 (CTX-M-15, OXA-1), ATB alone, read-out: MIC", "value": 128, "unit": "µg/mL"}, {"measurement": "MIC", "setting": "strain ECO 190457 (CTX-M-15, OXA-1), CLA @ 4 μg/ml+ ATB", "value": 0.5, "unit": "µg/mL"}, {"measurement": "MIC", "setting": "strain ECO 190549 (CTX-M-1), ATB alone", "value": 16, "unit": "µg/mL"}, {"measurement": "MIC", "setting": "strain ECO 190549 (CTX-M-1), CLA @ 4 μg/ml+ ATB", "value": 0.5, "unit": "µg/mL"}, {"measurement": "MIC", "setting": "strain ECO 200159 (TEM-1, CTX-M-14), ATB alone", "value": 8, "unit": "µg/mL"}, {"measurement": "MIC", "setting": "strain ECO 200159 (TEM-1, CTX-M-14), CLA @ 4 μg/ml+ ATB", "value": "≤ 0.25", "unit": "µg/mL"}, {"measurement": "MIC", "setting": "strain ECO 200259 (CTX-M-14), ATB alone", "value": 8, "unit": "µg/mL"}, {"measurement": "MIC", "setting": "strain ECO 200259 (CTX-M-14), CLA @ 4 μg/ml+ ATB", "value": "≤ 0.25", "unit": "µg/mL"}, {"measurement": "MIC", "setting": "strain ECO 200344 (CTX-M-1), CLA @ 4 μg/ml+ ATB", "value": 0.5, "unit": "µg/mL"}, {"measurement": "MIC", "setting": "strain ECO 260096 (CTX-M-132), ATB alone, read-out: MIC", "value": "> 128", "unit": "µg/mL"}, {"measurement": "MIC", "setting": "strain ECO 260096 (CTX-M-132), CLA @ 4 μg/ml+ ATB", "value": 1, "unit": "µg/mL"}, {"measurement": "MIC", "setting": "strain ECO 260304 (CTX-M-15), CLA @ 4 μg/ml+ ATB", "value": 0.5, "unit": "µg/mL"}, {"measurement": "MIC", "setting": "strain ECO 260508 (TEM-1, CTX-M-15, OXA-1), ATB alone, read-out: MIC", "value": "> 128", "unit": "µg/mL"}, {"measurement": "MIC", "setting": "strain ECO 260508 (TEM-1, CTX-M-15, OXA-1), CLA @ 4 μg/ml+ ATB", "value": 0.5, "unit": "µg/mL"}, {"measurement": "MIC", "setting": "strain ECO RGN238 (OXA-1), ATB alone", "value": "≤ 0.25", "unit": "µg/mL"}, {"measurement": "MIC", "setting": "strain ECO RGN238 (OXA-1), CLA @ 4 μg/ml+ ATB", "value": "≤ 0.25", "unit": "µg/mL"}, {"measurement": "MIC", "setting": "strain ECO UFR15 (TEM-1, OXA-48), ATB alone", "value": 1, "unit": "µg/mL"}, {"measurement": "MIC", "setting": "strain ECO UFR15 (TEM-1, OXA-48), CLA @ 4 μg/ml+ ATB", "value": 1, "unit": "µg/mL"}, {"measurement": "MIC", "setting": "strain ECO UFR16 (TEM-1, CTX-M-15, OXA-1, OXA-48), ATB alone, read-out: MIC", "value": "> 128", "unit": "µg/mL"}]}]}
